{"source": "patent US20250152574A1", "about": "(BIOGEN MA INC., priority 2022, published 2025)", "data": [{"biological_target": "T1, EBP (Homo sapiens, UniProt Q15125)", "T1 construct": "HEK293T cells were utilized as the source of EBP enzyme; endogenous in cells; host or cells: HEK293T", "T1 sequence (Q15125 whole entry)": "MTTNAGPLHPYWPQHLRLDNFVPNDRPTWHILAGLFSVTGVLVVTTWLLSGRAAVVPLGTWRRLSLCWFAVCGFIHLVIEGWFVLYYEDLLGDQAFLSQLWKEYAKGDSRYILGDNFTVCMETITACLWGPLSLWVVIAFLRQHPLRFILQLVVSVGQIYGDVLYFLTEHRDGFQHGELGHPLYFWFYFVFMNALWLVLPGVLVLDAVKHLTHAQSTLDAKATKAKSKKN", "assay": "EBP Functional Assay (EBP immunoaffinity LC-MS assay)", "format": "biochemical", "details": "HEK293T cells as source of EBP enzyme; substrate zymosterol-d5, 37° C. for 4 h; percent conversion to dehydrolathosterol-d5 by LC-APCI MRM MS", "how_it_was_run": "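HEK293T cells served as EBP source; enzyme preincubated 30 min with inhibitor dilutions, then zymosterol-d5 substrate added and incubated 4 h at 37° C. Sterols extracted and quantified by LC-APCI MRM MS; percent conversion to […] fit to 4-parameter logistic for IC50. Tasin-1 reference inhibitor.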", "units": {"IC50": "nM"}, "values": [{"compound": "O=S(=O)(c1ccc(OC(F)F)cc1)N1CCC2(CCC(N3C[C@@H]4C[C@H]3CO4)C2)CC1", "note": "(stereo partly drawn) [Example 89, (1S,4S)-5-(8-((4-(difluoromethoxy)phenyl)sulfonyl)-8-azaspiro[4.5]decan-2-yl)-2-oxa-5-azabicyclo[2.2.1]heptane]", "IC50": "100 to 250"}, {"compound": "Cc1cnc(S(=O)(=O)N2CCC3(CCC(N4CCOCC4)C3)CC2)c(C)c1", "note": "(stereo not shown) [Example 25, 4-(8-((3,5-Dimethylpyridin-2-yl)sulfonyl)-8-azaspiro[4.5]decan-2-yl)morpholine]", "IC50": "100 to 250"}, {"compound": "COc1ncc(C)cc1S(=O)(=O)N1CCC2(CCC(N3CC4(CCOC4)C3)C2)CC1", "note": "(stereo not shown) [Example 43]", "IC50": "< 100"}, {"compound": "COCCNC1COC2(CCN(S(=O)(=O)c3ccc(C)cc3C)CC2)C1", "note": "(stereo not shown) [Example 116, 8-((2,4-dimethylphenyl)sulfonyl)-N-(2-methoxyethyl)-1-oxa-8-azaspiro[4.5]decan-3-amine]", "IC50": "250 to 1500"}, {"compound": "N#Cc1ccc(Cl)c(S(=O)(=O)N2CCC3(CC2)CC(N2CC4(COC4)C2)CO3)c1", "note": "(stereo not shown) [Example 64, 3-((3-(2-Oxa-6-azaspiro[3.3]heptan-6-yl)-1-oxa-8-azaspiro[4.5]decan-8-yl)sulfonyl)-4-chlorobenzonitrile]", "IC50": "250 to 1500"}, {"compound": "COc1cc(S(=O)(=O)N2CCC3(CCC(N4CC5(COC5)C4)C3)CC2)ccn1", "note": "(stereo not shown) [Example 112]", "IC50": "< 100"}, {"compound": "O=S(=O)(c1ccc(OC(F)F)cc1)N1CCC2(CC[C@H](N3C[C@@H]4C[C@H]3CO4)C2)CC1", "note": "(single isomer, unassigned) [Example 90b]", "IC50": "< 100"}, {"compound": "N#Cc1ccc(F)c(S(=O)(=O)N2CCC3(CC2)CC(N2C[C@H]4C[C@@H]2CO4)CO3)c1", "note": "(stereo partly drawn) [Example 45, 3-((3-((1R,4R)-2-oxa-5-azabicyclo[2.2.1]heptan-5-yl)-1-oxa-8-azaspiro[4.5]decan-8-yl)sulfonyl)-4-fluorobenzonitrile]", "IC50": "250 to 1500"}, {"compound": "Cc1nc(Cl)ccc1S(=O)(=O)N1CCC2(CC1)CC(N1C[C@H]3C[C@@H]1CO3)C2", "note": "[Example 94, (1R,4R)-5-(7-((6-chloro-2-methylpyridin-3-yl)sulfonyl)-7-azaspiro[3.5]nonan-2-yl)-2-oxa-5-azabicyclo[2.2.1]heptane]", "IC50": "< 100"}, {"compound": "O=S(=O)(c1ccc(OC2CC2)cc1)N1CCC2(CCC(N3CC4(COC4)C3)C2)CC1", "note": "(stereo not shown) [Example 134, 6-(8-((4-cyclopropoxyphenyl)sulfonyl)-8-azaspiro[4.5]decan-2-yl)-2-oxa-6-azaspiro[3.3]heptane]", "IC50": "250 to 1500"}]}]}
